Assay [1] deals with Akt. Kind of assay: Western immunoblot of radiation-induced Akt phosphorylation in endothelial cells. In kind it is cell-based. The settings on record: for radiation-induced activation of Akt: irradiated vascular endothelium, summary statement. Here is the method:
Broad spectrum RTK inhibitors were tested for their abilities to attenuate radiation-induced phosphorylation of Akt. SU6668, a tyrosine kinase inhibitor of VEGFR, PDGFR, FGFR, and c-Kit, was added to endothelial cells prior to irradiation. Western immunoblots using phospho-specific antibodies to phosphorylated Akt (P-Akt) were prepared.
(§1) The role of RTKs in radiation-induced activation of the Akt signaling pathway was examined by studying a panel of tyrosine kinase inhibitors including PDGF receptor antagonists in primary culture endothelial cells. PDGF receptor antagonists including SU6668, SU11248, and STI571, attenuated radiation-induced phosphorylation of both Akt and Erk. […] Similar efficacy in blocking Erk1/2 phosphorylation in irradiated endothelial cells was found.

In assay [2] the test system is Akt. Briefly: Western blot of radiation-induced Akt phosphorylation in HUVEC. In kind it is cell-based, human. The source says:
HUVEC cells were obtained from Clonetics and were maintained in EBM-2 medium supplemented with EGM™-2MV SINGLEQUOTS® (Bio-Whittaker, Inc., Walkersville, Md., United States of America). An Eldorado-8 Cobalt-60 teletherapy unit (Atomic Energy of Canada Limited, Mississauga, Ontario, Canada) was used to irradiate endothelial cell cultures at a dose rate of 0.84 Gy per minute. Delivered doses ranging from 0 to 12 Gy were verified by use of thermoluminescence detectors.
In order to determine if Akt is phosphorylated in response to irradiation, cultured HUVEC cells were serum starved for 4 hours, exposed to irradiation, and the phosphorylation of Akt was examined in cell extracts by Western blotting. Total cellular protein was extracted after radiation treatment as follows. Cells were counted and then washed with iced-cold PBS twice before the addition of lysis buffer (M-PER™ mammalian protein extraction reagent; Pierce Chemical Company, Rockford, Ill., United States of America; or 20 mM Tris, 150 mM NaCl, 1 mM EDTA, 1% Triton X-100, 2.5 mM sodium pyrophosphate, 1 mM phenylmethylsulphonyl fluoride (PMSF), and […] Leupeptin (Roche Molecular Biochemicals, Indianapolis, Ind., United States of America)). Protein concentrations were quantified using the Biorad method (Bradford, 1976). 50 μg protein was loaded into each well of an 8% sodium dodecyl […]-polyacrylamide gel electrophoresis (SDS-PAGE) gel and separated by electrophoresis. The proteins were subsequently transferred onto 0.45 μm nitrocellulose membranes. Membranes were blocked by incubation for 2 hours at room temperature in phosphate buffered saline-Triton (PBST: 0.9% NaCl, 0.3% Triton X-100, pH 7.4) containing 10% nonfat dry milk.
The presence of Akt protein on the membrane was determined as follows. The membranes were incubated with a 1:1000 dilution of rabbit antibody directed against either phosphorylated (Ser473) or non-phosphorylated human Akt overnight at 4° C. Rabbit antibodies were obtained from Cell Signaling Technology, Beverly, Mass., United States of America. The blots were then washed with PBST to remove unbound rabbit antibodies. The washed blots were then incubated for 1 hour at room temperature with a donkey anti-rabbit IgG secondary antibody (Amersham Biosciences, Piscataway, N.J., United States of America) diluted 1:1000 in PBST. The blots were again washed with PBST to remove unbound donkey antibodies. The presences of both phosphorylated and non-phosphorylated human Akt were determined by chemiluminescent detection of donkey anti-rabbit/rabbit anti-human Akt complexes using the ECL™ detection system (Amersham Biosciences) according to the manufacturer's protocol, followed by autoradiography. […]
Background: In western blotting, separated proteins are transferred to a membrane and probed.

In the next assay the test system is Erk1/2. Kind of assay: Radiation-induced Erk phosphorylation in endothelial cells. Type of assay: cell-based. The settings on record: for radiation-induced phosphorylation of Erk: primary culture endothelial cells (Example 16). As to the method:
Phosphorylation of MEK and Erk proteins was also investigated. Erk1/2 was activated following a single 3 Gy dose of irradiation. Erk was phosphorylated within 15 minutes, which resolved within 60 minutes. SU6668 is a broad spectrum inhibitor of split kinase domain RTKs, including Flk-1, Flt-1, PDGFR, fibroblast growth factor receptor (FGFR), and c-Kit (Mendel et al, 2003).
as §1

The next assay concerns HUVEC cells. Briefly: Apoptotic nuclei in HUVEC, H&E staining. Type of assay: cell-based, human. The settings on record: wortmannin 4 nM or LY294002 2 μM, 24 hours. As to the method: To determine whether PI3K antagonists enhance the activities of intrinsic cell death mechanisms induced by irradiation, apoptosis in HUVEC cells was studied following PI3K inhibition. HUVEC cells were treated with wortmannin (4 nM) or with LY294002 (2 μM) as described in Example 2. Cells were treated 30 minutes later with 3 Gy of ionizing radiation. Cultures were stained 24 hours later with hematoxylin and eosin (H&E) to reveal apoptotic nuclei. Stained cells were then examined by light microscopy. For each treatment group, four high power fields (40× objective) were examined, and both the number of cells with apoptotic nuclei and the total number of cells were determined. From these numbers, the percentage of apoptotic cells for each group was calculated.

[3] abbreviates: primary culture endothelial cells (Example 16).
The mark [4] stands for this setting: added to endothelial cells prior to irradiation (Example 15).

SMILES strings stand for the structures.

Consider `O=c1c(-c2ccc(O)cc2)coc2cc(O)cc(O)c12` [Genistein, 4′,5,7-trihydroxyisoflavone], for which the “radiation-induced activation of Akt” value with Akt [1] was “attenuates”.

Consider `CCCCCCCCCCCCCC(=O)N[C@H](C)[C@@H](O)c1ccccc1` [MAPP], for which the “Akt phosphorylation in response to 3 Gy irradiation” value with Akt [2] (antagonists added to HUVEC in culture (Example 18)) is “did not attenuate”.

`Cc1ccc(NC(=O)c2ccc(CN3CCN(C)CC3)cc2)cc1Nc1nccc(-c2cccnc2)n1` [STI571]: in the assay on Akt [1] (setting [3]), the “radiation-induced phosphorylation of Akt” value is listed as “attenuated”. In addition, the “radiation-induced phosphorylation of Erk” value in the assay on Erk1/2 is reported as “attenuated”.

As for `Cc1cc(C)c(/C=C2\C(=O)Nc3ccccc32)[nH]1` [SU5416], the “radiation-induced phosphorylation of Akt” value in the assay on Akt [1] (setting [4]) is “did not attenuate”.

Take `Cc1[nH]c(C=C2C(=O)Nc3ccccc32)c(C)c1CCC(=O)O` [SU6668, 3-[2,4-dimethyl-5-(2-oxo-1,2-dihydro-indol-3-ylidenemethyl)-1H-pyrrol-3-yl]-propionic acid]: the results for the “radiation-induced phosphorylation of Akt” value in the assay on Akt [1] (setting [4]) and with Akt [1] (setting [3]) were “blocked” and “attenuated”, respectively. The “radiation-induced activation of Akt” value in the assay with Akt [1] is “attenuate”. Also, in the assay with Erk1/2 (added 30 minutes prior to irradiation, 3 Gy, did not entirely eliminate activation), the “Erk 1/2 phosphorylation” value is listed as “attenuated”. Besides, the “radiation-induced phosphorylation of Erk” value in the assay on Erk1/2 was “attenuated”.

As to `COC[C@H]1OC(=O)c2coc3c2[C@@]1(C)C1=C(C3=O)[C@@H]2CCC(=O)[C@@]2(C)C[C@H]1OC(C)=O` [wortmannin, Wortmannin], the “total Akt levels” value in the assay on Akt [2] (HUVEC, wortmannin 4 nM or LY294002 2 μM) is “no effect”. For the same compound, the “apoptotic nuclei, % of cells” value with HUVEC cells (HUVEC pretreated 30 minutes before 3 Gy) came out at 17%. The compound also gave an apoptotic cells in the assay on HUVEC cells (unirradiated HUVEC) of 3%.

The values above are taken from patent US20060084697A1, “Pi3k antagonists as radiosensitizers” (priority 2002, published 2006).
